# Earlier results in US6723337B1, “Transdermal drug delivery system for anti-inflammatory analgesic agent comprising diclofenac diethylammonium salt, and the manufacturing method thereof” (Samyang Corporation, priority 1997, dated 2004).
# Conditions: composition comprising hydroxy ethyl pyrrolidone or hydroxy ethyl piperidine as absorption enhancer
compound,measurement,value
O=C(O)Cc1ccccc1Nc1c(Cl)cccc1Cl [diclofenac],transdermal penetration of the accumulated diclofenac,180 μg/cm^2·day
